Test results taken from patent US10653364B2, “Method for the continuous evaluation of the ventriculo-aortic coupling of at-risk patients by analysis of pressure-flow loops” (Assistance Publique—Hopitaux de Paris, priority 2014, dated 2020).

Tested on: major neurosurgery patients
Assay: Aortic Pressure/Flow loop parameters before (T0) and at peak effect (T1) of a vasoconstrictor bolus in anesthetized patients
Type: in vivo, human
Parameters: S1, Base / S2, Base / S3, Base / Alpha, Base / Beta, Base / Gamma, Base / Alpha, Variations (Diff) / Beta, Variations (Diff) / Gamma, Variations (Diff) / S1, Variations (Diff) / S2, Variations (Diff) / S3, Variations (Diff): unit not given here
Details: for S2/Stot, Base / Alpha, Base / Beta, Base / Gamma, Base / S1, Base / S2, Base / S3, Base / S tot, Base: Base (T0, before injection); for Alpha, Base / Beta, Base / Gamma, Base: P/F loop angle; for S1, Base: P/F loop surface area S1; for S2, Base: P/F loop surface area S2; for S3, Base: P/F loop surface area S3; for Alpha, Peak / Beta, Peak / Gamma, Peak / S1, Peak / S2, Peak / S2/Stot, Peak / S3, Peak: Peak effect (T1) after peripheral venous bolus; for change in surface areas (Stot, S1, S2, S3) and angles (alpha, beta and gamma): before and after vasoconstriction, predominantly; for S tot, Base / S tot, Peak: total surface area of P/F loop; for S tot, Peak: Peak effect (T1) after peripheral venous bolus (9 mg Ephedrine, 50 μg Neophenylephrine or 5 μg Noradrenaline)
From the text: 1.1 Parameters Measured • The Pressure signal is collected in mmHg (FIG. 2), by means of a radial or femoral arterial catheter. • The esophageal Doppler signal giving the aortic flow in ml/s (FIG. 2) is collected via the Deltex® combi Q monitor. • The Pressure/Flow loop is constructed heart beat by heart beat with the simultaneous values of aortic flow on the x-axis and of pressure on the y-axis.
1.2 Description of the Various Parameters Resulting from the Aortic Pressure/Flow Loop: • the various specific points of the loop (FIG. 3-4): • A: diastolic pressure: the flow is zero before the beginning of systole. • B: maximum flow. • C: maximum pressure (systolic pressure). • D: dicrotic pressure: pressure at closing of the aortic valves: flow at 0, beginning of diastole. • The various specific straight lines of the loop: • straight line passing through points A and B: straight line between the beginning of the cycle and the point where the flow rate is at the maximum. • straight line passing through points A and C: straight line between the beginning of the cycle and the point where the pressure is at the maximum. • The various specific surface areas of the loop (FIG. 5): • Stot: total surface area of the Pressure/Flow loop. • S1: surface area between the lower part of the curve and the straight line (AB). • S2: surface area of the loop included between the two straight lines (AB) and (AC). • S3: surface area of the loop included between the straight line (AC) and the upper edge of the loop. • The various angles of the loop (FIG. 6): • Alpha: angle between the horizontal passing through point A and the straight line (AB). • Beta: angle between the horizontal passing through point A and the straight line (AC). • Gamma: angle between the two straight lines (AB) and (AC).
The study was carried out in the operating theatre on major neurosurgery patients, after agreement from the Ethics Committee (CE SRLF 11-356) and obtaining of informed consent. In addition to the standard monitoring, a device for simultaneous invasive measurement of arterial pressure and measurement of cardiac output by trans-esophageal Doppler (CombiQ®, Deltex Medical) was set out after induction of general anesthesia. Moreover, in order to have a reflection of arterial elastance and of arterial stiffness, an arterial tonometer (SphygmoCor®, AtCor Medical) was used to obtain the curve of central arterial pressure and the arterial stiffness indices. This device is currently the reference for quantifying arterial stiffness (represented by the augmentation index: Aix, FIG. 11) and monitors its evolution as a function of vasoactive therapies.
Patients having episodes of decrease in arterial pressure (decrease of 20% compared with the target pressure) and requiring the administration of a vasoconstrictor were included. Before each injection of […] (T0) and then at the time of the peak effect of the vasopressin (T1) the Pressure/Flow loops were plotted and the parameters derived from the loop were calculated. At the same time, using the SphygmoCor®, the augmentation index (Aix) and the arterial elastance (Ea) were recorded.
Depending on the anesthetists' choice, the patients received either 9 mg of Ephedrine, or 50 μg of Neophenylephrine, or 5 μg of Noradrenaline administered via a peripheral venous route.
Statistical Analysis: • search for the correlation between the Aix measured by SphygmoCor®, with the parameters of the P/F loop at T0 and at T1. • comparison of the evolution of the parameters of the P/F loop as a function of the use of Ephedrine, of Neosynephrine or of Noradrenaline. • comparison of the parameters of the P/F loop at T0 between the patients having cardiovascular risk factors and the patients not having risk factors. • study of the variations of the parameters of the P/F loop before and after vasoconstriction as a function of the patient's susceptibility to illness and of the type of vasoconstrictor used.

Q: With `CN[C@@H](C)[C@H](O)c1ccccc1` [Ephedrine] as the compound, how does the “S2/Stot, Base” value read?
A: 34.2

Q: What about the “Alpha, Base” value of the same compound?
A: 7.4

Q: And the “Beta, Base” value?
A: 10.9

Q: What about the “Gamma, Base” value of the same compound?
A: 1.8

Q: What about the “S1, Base” value of the same compound?
A: 1997

Q: And the “S2, Base” value?
A: 1709

Q: What about the “S3, Base” value of the same compound?
A: 1658.8

Q: And the “Alpha, Peak” value?
A: 9.5

Q: And the “Beta, Peak” value?
A: 13.3

Q: What about the “Gamma, Peak” value of the same compound?
A: 2.4

Q: And the “S1, Peak” value?
A: 2722

Q: And the “S2, Peak” value?
A: 2694.4

Q: And the “S2/Stot, Peak” value?
A: 32.6

Q: What about the “S3, Peak” value of the same compound?
A: 2242.5

Q: What about the “change in surface areas (Stot, S1, S2, S3) and angles (alpha, beta and gamma)” value (from here on “change in surface areas”) of the same compound?
A: significant increase

Q: And the “S tot, Base” value?
A: 4889

Q: What about the “S tot, Peak” value of the same compound?
A: 6974

Q: For `NC[C@H](O)c1ccc(O)c(O)c1` [Noradrenaline], which “S2/Stot, Base” value is on record?
A: 26.4

Q: What about the “Alpha, Base” value of the same compound?
A: 8.5

Q: What about the “Beta, Base” value of the same compound?
A: 11.5

Q: What about the “Gamma, Base” value of the same compound?
A: 2.2

Q: What about the “S1, Base” value of the same compound?
A: 1775

Q: And the “S2, Base” value?
A: 1215.9

Q: What about the “S3, Base” value of the same compound?
A: 1860.8

Q: What about the “Alpha, Peak” value of the same compound?
A: 10.6

Q: And the “Beta, Peak” value?
A: 14.2

Q: What about the “Gamma, Peak” value of the same compound?
A: 3.2

Q: What about the “S1, Peak” value of the same compound?
A: 1963.2

Q: And the “S2, Peak” value?
A: 1957.4

Q: And the “S2/Stot, Peak” value?
A: 27.9

Q: And the “S3, Peak” value?
A: 2311.5

Q: What about the “change in surface areas” value of the same compound?
A: significant increase

Q: And the “S tot, Base” value?
A: 5291

Q: And the “S tot, Peak” value?
A: 6582

Q: Which “S2/Stot, Base” value does the source give for `CNC[C@H](O)c1cccc(O)c1` [Neosynephrine] here?
A: 26.9

Q: And the “increase of the beta and gamma angles” value (FIG. 13, for similar pressure increases induced by the vasoconstrictors)?
A: significantly more than Noradrenaline and Ephedrine

Q: What about the “Alpha, Variations (Diff)” value (NEOSYNEPHRINE vs NORADRENALINE) of the same compound?
A: −0.02

Q: And the “Beta, Variations (Diff)” value (NEOSYNEPHRINE vs NORADRENALINE)?
A: 2.55

Q: And the “Gamma, Variations (Diff)” value (NEOSYNEPHRINE vs NORADRENALINE)?
A: 2.59

Q: What about the “S1, Variations (Diff)” value (NEOSYNEPHRINE vs NORADRENALINE) of the same compound?
A: 266.01

Q: And the “S1/Stot %, Variations (Diff)” value (NEOSYNEPHRINE vs NORADRENALINE)?
A: −4.61%

Q: And the “S2, Variations (Diff)” value (NEOSYNEPHRINE vs NORADRENALINE)?
A: 615.97

Q: And the “S2/Stot %, Variations (Diff)” value (NEOSYNEPHRINE vs NORADRENALINE)?
A: 6.6%

Q: What about the “S3, Variations (Diff)” value (NEOSYNEPHRINE vs NORADRENALINE) of the same compound?
A: 221.27

Q: And the “S3/Stot %, Variations (Diff)” value (NEOSYNEPHRINE vs NORADRENALINE)?
A: −2.13%

Q: And the “S tot, Variations (Diff)” value (NEOSYNEPHRINE vs NORADRENALINE)?
A: 1072.27

Q: And the “Alpha, Base” value?
A: 8.5

Q: And the “Beta, Base” value?
A: 11.2

Q: What about the “Gamma, Base” value of the same compound?
A: 2.1

Q: And the “S1, Base” value?
A: 2028

Q: What about the “S2, Base” value of the same compound?
A: 1255.2

Q: What about the “S3, Base” value of the same compound?
A: 1851.1

Q: What about the “Alpha, Peak” value of the same compound?
A: 10.6

Q: And the “Beta, Peak” value?
A: 16.2

Q: And the “Gamma, Peak” value?
A: 5.4

Q: And the “S1, Peak” value?
A: 2516

Q: What about the “S2, Peak” value of the same compound?
A: 2624.7

Q: And the “S2/Stot, Peak” value?
A: 31.2

Q: And the “S3, Peak” value?
A: 2452.2

Q: And the “change in surface areas” value?
A: significant increase

Q: What about the “increase with respect to Stot, beta, gamma and S2 (absolute and S2/Stot)” value (compared with the other two vasoconstrictors) of the same compound?
A: greater increase than the other two vasoconstrictors

Q: And the “effect on ventricular-aortic coupling” value (reflected by greater increase in S2 and in beta and gamma angles)?
A: detrimental effect

Q: And the “S tot, Base” value?
A: 5344

Q: And the “S tot, Peak” value?
A: 7412
